In patent US20190075791A1, “ANTIMICROBIAL SURFACE COATING MATERIAL” (YEDITEPE UNIVERSITESI, priority 2015, published 2019):

Experiments:
Experiment in all cases: Modified disk diffusion method (chemicals)
Assay type in all cases: cell-based
Candida glabrata = settings: disc diffusion on Sabouraud Dextrose Agar, 48 hours at 36±1 °C, PC = nystatin 30 μg/disc
Procedure: (§1) Modified disk diffusion method: Standard NCCLS disc diffusion method was used upon being modified in order to determine the antimicrobial activity of CG, T and ZP on each microorganism that is being tested. The 100 μl solution including 10^8 cfu/ml bacteria, 10^6 cfu/ml yeast and 10^4 spor/ml fungi was prepared with fresh cultures and inoculated with spreading method on Nutrient Agar (NA), Sabouraud Dextrose Agar (SDA) and Potato Dextrose Agar (PDA), respectively. 20 μl of sterile water was dropped on the empty discs, and was immersed into powder triclosan. 20 μl of chlorhexidine gluconate and zinc pyrithione were drawn and impregnated to the empty discs and placed on the inoculated petri dishes. Empty discs with 20 μl drop of sterile water were used as negative control. Ofloxacin (10 μg/disc) and nystatin (30 μg/disc) were used as positive control for bacteria and fungi, respectively. The petri dishes, which were inoculated and on which modified disc diffusion method was applied, were incubated for 24 hours for bacteria and 48 hours for yeasts at 36±1 ° C., and for 72 hours for fungi at 25±1 ° C. […] All tests were repeated at least twice.

Candida albicans = settings: disc diffusion on Sabouraud Dextrose Agar, 48 hours at 36±1 °C, PC = nystatin 30 μg/disc
Procedure: as §1

Staphylococcus aureus = settings: disc diffusion on Nutrient Agar, 24 hours at 36±1 °C, PC = ofloxacin 10 μg/disc
Procedure: as §1

[1] = system: Vancomycin-resistant Enterococcus (VRE); settings: disc diffusion on Nutrient Agar, 24 hours at 36±1 °C, PC = ofloxacin 10 μg/disc
Procedure: as §1

Aspergillus spp. = settings: disc diffusion on Potato Dextrose Agar, 72 hours at 25±1 °C, PC = nystatin 30 μg/disc
Procedure: as §1

Escherichia coli = settings: disc diffusion on Nutrient Agar, 24 hours at 36±1 °C, PC = ofloxacin 10 μg/disc
Procedure: as §1

Penicillium spp. = settings: disc diffusion on Potato Dextrose Agar, 72 hours at 25±1 °C, PC = nystatin 30 μg/disc
Procedure: as §1

Pseudomonas aeruginosa = settings: disc diffusion on Nutrient Agar, 24 hours at 36±1 °C, PC = ofloxacin 10 μg/disc
Procedure: as §1

Fusarium oxysporum = settings: disc diffusion on Potato Dextrose Agar, 72 hours at 25±1 °C, PC = nystatin 30 μg/disc
Procedure: as §1

[2] = system: Methicillin-resistant Staphylococcus aureus (MRSA); settings: disc diffusion on Nutrient Agar, 24 hours at 36±1 °C, PC = ofloxacin 10 μg/disc
Procedure: as §1

Botrytis cinerea = settings: disc diffusion on Potato Dextrose Agar, 72 hours at 25±1 °C, PC = nystatin 30 μg/disc
Procedure: as §1

Row | Compound | Antimicrobial activity (inhibition zone) (Candida glabrata) | Antimicrobial activity (inhibition zone) (Candida albicans) | Antimicrobial activity (inhibition zone) (Staphylococcus aureus) | Antimicrobial activity (inhibition zone) [1] | Antimicrobial activity (inhibition zone) (Aspergillus spp.) | Antimicrobial activity (inhibition zone) (Escherichia coli) | Antimicrobial activity (inhibition zone) (Penicillium spp.) | Antimicrobial activity (inhibition zone) (Pseudomonas aeruginosa) | Antimicrobial activity (inhibition zone) (Fusarium oxysporum) | Antimicrobial activity (inhibition zone) [2] | Antimicrobial activity (inhibition zone) (Botrytis cinerea)
1 | N=C(NCCCCCCNC(=N)NC(=N)Nc1ccc(Cl)cc1)NC(=N)Nc1ccc(Cl)cc1.O=C(O)[C@H](O)[C@@H](O)[C@H](O)[C@H](O)CO.O=C(O)[C@H](O)[C@@H](O)[C@H](O)[C@H](O)CO [CG, Chlorhexidine gluconate] | + | + | + | + | + | + | + | + | + | + | +
2 | Oc1cc(Cl)ccc1Oc1ccc(Cl)cc1Cl [T, Triclosan] | − | − | + | + | − | + | − | + | − | + | −
3 | Zinc Pyrithione [ZP] | + | + | + | + | + | + | + | + | + | + | +
